≈ marks a conversion by molar mass, not a printed value.
Experiments:
P. aeruginosa 41B = assay: MIC, CLSI broth microdilution in BD Phoenix AST Broth; type: cell-based, Pseudomonas aeruginosa; settings: strain 41B
P. aeruginosa PAOΔmexR = assay: as above; type: cell-based, Pseudomonas aeruginosa
P. aeruginosa PAOUW = assay: as above; type: cell-based, Pseudomonas aeruginosa; settings: strain PAOUW
P. aeruginosa 125A = assay: as above; type: cell-based, Pseudomonas aeruginosa; settings: strain 125A
P. aeruginosa PAO1 [1] = assay: as above; type: cell-based, Pseudomonas aeruginosa
P. aeruginosa PAOΔmexZ = assay: as above; type: cell-based, Pseudomonas aeruginosa; settings: strain PAOΔmexZ
P. aeruginosa PAOUW∆oprF = assay: as above; type: cell-based, Pseudomonas aeruginosa
P. aeruginosa PAOΔoprM = assay: as above; type: cell-based, Pseudomonas aeruginosa
P. aeruginosa 125B = assay: as above; type: cell-based, Pseudomonas aeruginosa; settings: strain 125B
P. aeruginosa 41A = assay: as above; type: cell-based, Pseudomonas aeruginosa; settings: strain 41A
P. aeruginosa PAO1 [2] = assay: MIC in the presence of 25% mouse serum; settings: PAO1, 25% non-inactivated C57BL/6RJ mouse serum
[3] = system: PAO1 mutant MIN1_RW01_1, pmrB(Y98N); assay: MIC, E-test on MHA; type: cell-based; settings: Pseudomonas aeruginosa, PAO1, read-out: MIC, E-test
[4] = system: PAO1 mutant MIN16_1, nalD(T43P); assay: MIC, E-test on MHA; type: cell-based; settings: Pseudomonas aeruginosa, PAO1, read-out: MIC, E-test
[5] = system: PAO1 mutant MIN8_1, nalD(R3C), pilM(Q62X); assay: MIC, E-test on MHA; type: cell-based; settings: Pseudomonas aeruginosa, PAO1, read-out: MIC, E-test
[6] = system: PAO1 mutant MIN1_RW01_4, pmrB(F124L); assay: MIC, E-test on MHA; type: cell-based; settings: Pseudomonas aeruginosa, PAO1, read-out: MIC, E-test
[7] = system: PAO1 mutant MIN8_4, pilZ(nt18InsT); assay: MIC, E-test on MHA; type: cell-based; settings: Pseudomonas aeruginosa, PAO1, read-out: MIC, E-test
[8] = system: PAO1 mutant MIN4_RW01_3, pmrB(M292T); assay: MIC, E-test on MHA; type: cell-based; settings: Pseudomonas aeruginosa, PAO1, read-out: MIC, E-test
[9] = system: PAO1 mutant MIN2_RW01_2, pmrB(M292T); assay: MIC, E-test on MHA; type: cell-based; settings: Pseudomonas aeruginosa, PAO1, read-out: MIC, E-test
[10] = system: PAO1 mutant MIN32_1, mexR(R63H), pilB(N349K), PA0646(V316G); assay: MIC, E-test on MHA; type: cell-based; settings: Pseudomonas aeruginosa, PAO1, read-out: MIC, E-test
[11] = system: PAO1 mutant MIN8_2, pilZ(nt18InsT); assay: MIC, E-test on MHA; type: cell-based; settings: Pseudomonas aeruginosa, PAO1, read-out: MIC, E-test
[12] = system: PAO1 mutant MIN4_RW01_2, pmrB(F124S); assay: MIC, E-test on MHA; type: cell-based; settings: Pseudomonas aeruginosa, PAO1, read-out: MIC, E-test
[13] = system: PAO1 mutant MIN2_RW01_1, pmrB(V215L); assay: MIC, E-test on MHA; type: cell-based; settings: Pseudomonas aeruginosa, PAO1, read-out: MIC, E-test
[14] = system: PAO1 mutant MIN4_RW01_4, pmrB(Y98N); assay: MIC, E-test on MHA; type: cell-based; settings: Pseudomonas aeruginosa, PAO1, read-out: MIC, E-test
[15] = system: PAO1 mutant MIN16_3, nfxB(nt79∆14), pilB(N349K); assay: MIC, E-test on MHA; type: cell-based; settings: Pseudomonas aeruginosa, PAO1, read-out: MIC, E-test
[16] = Pseudomonas aeruginosa, agent alone, 37°C, 18–22 h, three biological replicates
[17] = MIC of the antibiotic with fixed 100 mg/L RW01
[18] = antibiotic MIC alone vs with RW01 100 mg/L
[19] = antibiotic with RW01 at 100 mg/L
[20] = strain PAOΔmexR, antibiotic with RW01 at 100 mg/L
[21] = strain PAO1, antibiotic with RW01 at 100 mg/L
[22] = strain PAOUWΔoprF (printed PAOΔoprF), antibiotic with RW01 at 100 mg/L
[23] = strain PAOΔoprM, antibiotic with RW01 at 100 mg/L

Q: Which MIC (P. aeruginosa 41B; [16]) does the source give for C[C@H]1c2cccc(O)c2C(=O)C2=C(O)[C@]3(O)C(=O)C(C(N)=O)=C(O)[C@@H](N(C)C)[C@@H]3[C@@H](O)[C@@H]21 [Doxycycline, doxycycline] here?
A: The MIC was 16 µg/mL.

Q: What about the “Antibiotic MIC + RW01 100 mg/L” value (P. aeruginosa 41B; [17]) of the same compound?
A: The value was 2 µg/mL.

Q: And the “Potentiation (fold)” value (P. aeruginosa 41B; [18])?
A: Its value is 8 fold.

Q: What about the FICI (P. aeruginosa 41B; [19]) of the same compound?
A: The FICI was 0.223.

Q: What about the FICI-determined effect (P. aeruginosa 41B; [19]) of the same compound?
A: The FICI-determined effect was “Synergy (synergistic effect if FICI is ≤0.5)”.

Q: What about the MIC (P. aeruginosa PAOΔmexR; Pseudomonas aeruginosa) of the same compound?
A: Its MIC is 64 µg/mL.

Q: What about the “Antibiotic MIC + RW01 100 mg/L” value (P. aeruginosa PAOΔmexR; strain PAOΔmexR, MIC of the antibiotic with fixed 100 mg/L RW01) of the same compound?
A: The value was 32 µg/mL.

Q: And the “Potentiation (fold)” value (P. aeruginosa PAOΔmexR; strain PAOΔmexR, antibiotic MIC alone vs with RW01 100 mg/L)?
A: The value was 2 fold.

Q: What about the FICI (P. aeruginosa PAOΔmexR; [20]) of the same compound?
A: The FICI was 0.598.

Q: What about the FICI-determined effect (P. aeruginosa PAOΔmexR; [20]) of the same compound?
A: Its FICI-determined effect is “Additivity (additive effect if 0.5 < FICI ≤ 1.0)”.

Q: And the MIC (P. aeruginosa PAOUW; Pseudomonas aeruginosa, agent alone, 37°C, 18–22 h, three biological replicates, read-out: MIC)?
A: The MIC was 32 µg/mL.

Q: What about the “Antibiotic MIC + RW01 100 mg/L” value (P. aeruginosa PAOUW; [17]) of the same compound?
A: Its value is 4 µg/mL.

Q: What about the “Potentiation (fold)” value (P. aeruginosa PAOUW; [18]) of the same compound?
A: The value was 8 fold.

Q: What about the FICI (P. aeruginosa PAOUW; [19]) of the same compound?
A: Its FICI is 0.223.

Q: And the FICI-determined effect (P. aeruginosa PAOUW; [19])?
A: The FICI-determined effect was “Synergy (synergistic effect if FICI is ≤0.5)”.

Q: What about the MIC (P. aeruginosa 125A; [16]) of the same compound?
A: Its MIC is 4 µg/mL.

Q: What about the “Potentiation (fold)” value (P. aeruginosa 125A; [18]) of the same compound?
A: Its value is 8 fold.

Q: What about the FICI (P. aeruginosa 125A; [19]) of the same compound?
A: Its FICI is 0.320.

Q: What about the FICI-determined effect (P. aeruginosa 125A; [19]) of the same compound?
A: The FICI-determined effect was “Synergy (synergistic effect if FICI is ≤0.5)”.

Q: And the MIC (P. aeruginosa PAO1 [1]; Pseudomonas aeruginosa, PAO1, strain PAO1, agent alone, 37°C, 18–22 h, three biological replicates, read-out: MIC)?
A: Its MIC is 16 µg/mL.

Q: What about the “Antibiotic MIC + RW01 100 mg/L” value (P. aeruginosa PAO1 [1]; strain PAO1, MIC of the antibiotic with fixed 100 mg/L RW01) of the same compound?
A: The value was 1 µg/mL.

Q: What about the “Potentiation (fold)” value (P. aeruginosa PAO1 [1]; strain PAO1, antibiotic MIC alone vs with RW01 100 mg/L) of the same compound?
A: The value was 16 fold.

Q: What about the FICI (P. aeruginosa PAO1 [1]; [21]) of the same compound?
A: Its FICI is 0.258.

Q: What about the FICI-determined effect (P. aeruginosa PAO1 [1]; [21]) of the same compound?
A: Its FICI-determined effect is “Synergy (synergistic effect if FICI is ≤0.5)”.

Q: What about the MIC (P. aeruginosa PAOΔmexZ; [16]) of the same compound?
A: Its MIC is 64 µg/mL.

Q: And the “Antibiotic MIC + RW01 100 mg/L” value (P. aeruginosa PAOΔmexZ; [17])?
A: Its value is 4 µg/mL.

Q: What about the “Potentiation (fold)” value (P. aeruginosa PAOΔmexZ; [18]) of the same compound?
A: Its value is 16 fold.

Q: And the FICI (P. aeruginosa PAOΔmexZ; [19])?
A: Its FICI is 0.160.

Q: What about the FICI-determined effect (P. aeruginosa PAOΔmexZ; [19]) of the same compound?
A: Its FICI-determined effect is “Synergy (synergistic effect if FICI is ≤0.5)”.

Q: What about the MIC (P. aeruginosa PAOUW∆oprF; Pseudomonas aeruginosa, strain PAOUWΔoprF, agent alone, 37°C, 18–22 h, three biological replicates) of the same compound?
A: Its MIC is 16 µg/mL.

Q: What about the “Potentiation (fold)” value (P. aeruginosa PAOUW∆oprF; strain PAOUWΔoprF (printed PAOΔoprF), antibiotic MIC alone vs with RW01 100 mg/L) of the same compound?
A: The value was 16 fold.

Q: And the FICI (P. aeruginosa PAOUW∆oprF; [22])?
A: Its FICI is 0.160.

Q: And the FICI-determined effect (P. aeruginosa PAOUW∆oprF; [22])?
A: The FICI-determined effect was “Synergy (synergistic effect if FICI is ≤0.5)”.

Q: What about the “Antibiotic MIC + RW01 100 mg/L” value (P. aeruginosa PAOUW∆oprF; strain PAOUWΔoprF, MIC of the antibiotic with fixed 100 mg/L RW01) of the same compound?
A: The value was 1 µg/mL.

Q: And the MIC (P. aeruginosa PAOΔoprM; Pseudomonas aeruginosa)?
A: The MIC was 0.5 µg/mL.

Q: What about the “Antibiotic MIC + RW01 100 mg/L” value (P. aeruginosa PAOΔoprM; strain PAOΔoprM, MIC of the antibiotic with fixed 100 mg/L RW01) of the same compound?
A: Its value is 0.125 µg/mL.

Q: And the “Potentiation (fold)” value (P. aeruginosa PAOΔoprM; strain PAOΔoprM, antibiotic MIC alone vs with RW01 100 mg/L)?
A: The value was 4 fold.

Q: What about the FICI (P. aeruginosa PAOΔoprM; [23]) of the same compound?
A: The FICI was 0.348.

Q: What about the FICI-determined effect (P. aeruginosa PAOΔoprM; [23]) of the same compound?
A: Its FICI-determined effect is “Synergy (synergistic effect if FICI is ≤0.5)”.

Q: What about the MIC (P. aeruginosa 125B; [16]) of the same compound?
A: Its MIC is 4 µg/mL.

Q: What about the “Antibiotic MIC + RW01 100 mg/L” value (P. aeruginosa 125B; [17]) of the same compound?
A: The value was 0.5 µg/mL.

Q: What about the “Potentiation (fold)” value (P. aeruginosa 125B; [18]) of the same compound?
A: Its value is 8 fold.

Q: What about the FICI (P. aeruginosa 125B; [19]) of the same compound?
A: The FICI was 0.320.

Q: And the FICI-determined effect (P. aeruginosa 125B; [19])?
A: The FICI-determined effect was “Synergy (synergistic effect if FICI is ≤0.5)”.

Q: What about the MIC (P. aeruginosa 41A; [16]) of the same compound?
A: The MIC was 16 µg/mL.

Q: And the “Antibiotic MIC + RW01 100 mg/L” value (P. aeruginosa 41A; [17])?
A: The value was 2 µg/mL.

Q: What about the “Potentiation (fold)” value (P. aeruginosa 41A; [18]) of the same compound?
A: The value was 8 fold.

Q: What about the FICI (P. aeruginosa 41A; [19]) of the same compound?
A: Its FICI is 0.223.

Q: What about the FICI-determined effect (P. aeruginosa 41A; [19]) of the same compound?
A: The FICI-determined effect was “Synergy (synergistic effect if FICI is ≤0.5)”.

Q: What about the “MIC in the presence of serum” value (P. aeruginosa PAO1 [2]; antibiotic alone) of the same compound?
A: Its value is “unchanged”.

Q: And the “MIC + RW01 in the presence of serum” value (P. aeruginosa PAO1 [2]; antibiotic with RW01 100 mg/L)?
A: Its value is “unchanged”.

Q: And the MIC [3]?
A: Its MIC is 96 µg/mL (≈ 216 µM).

Q: And the MIC [4]?
A: The MIC was 256 µg/mL (≈ 576 µM).

Q: And the MIC [5]?
A: Its MIC is 256 µg/mL (≈ 576 µM).

Q: What about the MIC [6] of the same compound?
A: The MIC was 96 µg/mL (≈ 216 µM).

Q: What about the MIC [7] of the same compound?
A: Its MIC is 256 µg/mL (≈ 576 µM).

Q: What about the MIC [8] of the same compound?
A: Its MIC is 128 µg/mL (≈ 288 µM).

Q: And the MIC [9]?
A: Its MIC is 128 µg/mL (≈ 288 µM).

Q: What about the MIC [10] of the same compound?
A: Its MIC is 256 µg/mL (≈ 576 µM).

Q: And the MIC [11]?
A: The MIC was 256 µg/mL (≈ 576 µM).

Q: What about the MIC [12] of the same compound?
A: The MIC was 64 µg/mL (≈ 144 µM).

Q: What about the MIC [13] of the same compound?
A: The MIC was 96 µg/mL (≈ 216 µM).

Q: And the MIC [14]?
A: Its MIC is 64 µg/mL (≈ 144 µM).

Q: What about the MIC [15] of the same compound?
A: Its MIC is 192 µg/mL (≈ 432 µM).
